Earlier results as cited in patent US4477441A, “Renin inhibitors containing a C-terminal disulfide cycle” (Merck & Co., Inc., priority 1983, dated 1984).

Tested on: hog renin
Conditions: nephrectomized rats after injection of hog renin; Gross et al. 1971

Substance: Pepstatin
- blood pressure in vivo: reduce blood pressure in vivo
